Data set [1] concerns LPS/HI-injured P7 rat pups. The data set can be described thus: LPS-sensitized HI (LPS/HI) brain injury model in P7 rats. The class given is in vivo. As to the method:
To test whether intrauterine infection accelerates the development of TH17 lymphocytes, the expression of IL-23 receptor (IL-23R) mRNA, a marker of TH17 cells, was compared in aliquots of cord blood mononuclear cells isolated from late preterm neonates (32-36 gestational weeks) with and without histological chorioamnionitis. […] A well-characterized LPS-sensitized HI brain injury model in P7 rats was used to compare the effects of low-dose LPS (0.3 mg/kg, IP), HI, and combined LPS/HI on the expression of IL-23R mRNA in the peripheral blood mononuclear cells.
The effects of FTY720 administration (1 μg/g, IP) after LPS/HI insult in P7 rat pups were examined.
(§1) Flow cytometry we used to compare the percentage of CD4+ IL-17A+T-cells at 24 h after LPS, HI (90 min), or LPS+80 min HI brain injury. A longer duration of pure-HI insult was chosen because 80-min HI produced milder brain damage and little neuroinflammation. The TH17/IL-17 activity was compared under pure-HI (90 min) and LPS/HI (80 min) insults that produce similar levels of brain injury. […] The dual LPS/HI insult led to a significant increase to 21% of CD4+ IL-17A+ T-cells, which was reduced to 12% by FTY720 treatment (FIG. 3A).
(§2) Whether (p)FTY720 exerts direct neuroprotection was investigated. The effects of FTY720 on pure-HI (90 min) and LPS-sensitized HI insult (80 min) were compared reasoning that FTY720 should oppose both insults if its benefits are derived primarily from neuronal protection. Of note, because 80 min pure-HI insult caused little brain damage, a longer duration of pure-HI (90 min) we used in this experiment.
Magnetic resonance imaging (MRI) and behavioral testing were used to assess both acute and long-term effects of FTY720 treatment in LPS/HI injury. […] Two weeks later, the TBSS-identified at-risk gray and white matter became atrophic or distorted in saline-treated rat pups.

The test system of data set [2] is microglial activation in P7 rats. The data set is described as follows: intracerebroventricular (ICV) injection of LPS in P7 rats, model of direct microglial activation. The note with it: FTY720 1 μg/g IP; LPS 2 μg ICV. In kind it is in vivo, rat. On the procedure:
(§3) Experiments herein indicate FTY720 primarily blocks brain influx of leukocytes to prevent LPS/HI-induced neuroinflammation. […] To distinguish between these two scenarios, the effects of FTY720 was tested on the MCP1 induction following cerebral ventricle-injection of LPS, a paradigm of direct microglial activation. […] Intracerebroventricular (ICV) injection of LPS was performed in bitransgenic CX3CR1-GFP; CCR2-RFP mice, in which the microglia and circulating monocytes are marked by the green and red fluorescence protein, respectively. In unchallenged mice, the brains were largely devoid of monocytes and the microglial processes were excluded from the hippocampal pyramidal cell layer.

For data set [3], the system named is microglia and monocytes in CX3CR1-GFP; CCR2-RFP mice. The data set can be described thus: ICV injection of LPS in P10 CX3CR1-GFP; CCR2-RFP mice. The note with it: 24 h after ICV LPS 1 μg; FTY720 1 μg/g. In kind it is in vivo. On the procedure: In untouched mice, few GFP+ microglial processes extended into the pyramidal cell layer in the hippocampal (CA), and almost no RFP+ monocytes were detected in the brain.
as §3

For a further data set, the system named is pure-HI injured rat pups. The data set is described as follows: pure-HI (90 min) brain injury in rat pups. In kind it is in vivo. On the procedure: as §1, §2
The subject of the next data set is SM826 microglial cells. The data set can be described thus: LPS-induced activation of immortalized microglia SM826 cells. The class given is cell-based. The text has this: These in-vivo and in-vitro results argued against direct inhibition of microglia by FTY720, which prompted us to examine the expression of S1P receptor isoforms in neonatal rat microglia. […] Thus, the effects of pFTY720 and S1P on LPS-induced expression of IL-23 (a key factor for TH17 cell differentiation), TNFα (Tumor Necrosis Factor-alpha), and iNOS mRNA were compared. […] Finally, the effects of S1P and Tat-NBD, an anti-NFKB peptide, were compared on the intracellular signaling responses to LPS in immortalized microglial cells.

The next data set relates to LPS/HI-injured P10 mice. The data set is described as follows: LPS/HI injury in P10 mice. In kind it is in vivo. The note with it: two doses of 25 mg/kg, 16 h pre- & 1 h post-LPS/HI. On the procedure:
An experiment was performed to test the effects of SR1001, a small-molecule inhibitor of RORc, in LPS/HI injury in P10 mice.

Another data set addresses S1PR2 (Homo sapiens, UniProt O95136). To be noted: Mandala et al., 2002; cited from earlier work.

Entries after “also recorded” stand apart in the source; their conditions may differ.

Sequence of S1PR2 (O95136 whole entry, species assumed): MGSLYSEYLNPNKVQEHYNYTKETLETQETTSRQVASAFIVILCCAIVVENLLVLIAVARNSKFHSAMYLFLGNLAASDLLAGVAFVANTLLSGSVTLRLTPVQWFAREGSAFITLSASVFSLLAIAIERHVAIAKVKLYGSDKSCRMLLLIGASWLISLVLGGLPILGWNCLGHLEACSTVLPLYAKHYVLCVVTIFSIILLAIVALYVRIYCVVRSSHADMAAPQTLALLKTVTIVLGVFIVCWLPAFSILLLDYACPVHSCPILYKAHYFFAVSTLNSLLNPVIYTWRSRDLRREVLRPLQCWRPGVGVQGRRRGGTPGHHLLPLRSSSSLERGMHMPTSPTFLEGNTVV

`CCCCCCCCc1ccc(CCC(N)(CO)CO)cc1` [FTY720, 2-amino-2-[2-(4-octylphenyl)ethyl]propane-1,3-diol]: in data set [1] (18-24 h following LPS/HI), the “LPS/HI-induced MCP1 expression in the brain (ELISA)” value is “markedly reduced; also recorded: significant attenuation”, the “LPS/HI-induced MCP1 in the plasma (ELISA)” value is “failed to prevent” and the “post-LPS/HI induction of TSPO mRNA (marker for activated microglia)” value is “markedly reduced”. In addition, the “ribbon-like CD43 immunoreactivity in the ipsilateral choroid plexus” value in data set [1] (4 h after LPS/HI) is on record as “preserved; also recorded: less pronounced”. The “IL-23R mRNA levels in peripheral blood mononuclear cells (normalized to actin)” value in data set [1] (4 h after LPS/HI, FTY720 1 μg/g IP) is given as “blocked the increase”. In data set [1] (4 h post-LPS/HI), the “influx of CD43+ leukocytes in choroid plexus / ipsilateral subcortical white matter” value is on record as “mitigated the influx; also recorded: absence of CD43+ cells; also recorded: not in the contralateral hemisphere or after the FTY720 treatment”. Also, in data set [1] (4 h recovery from LPS/HI), the “nuclear NF-κB activity (EMSA, brain nuclear extract)” value is given as “greatly reduced; also recorded: prevented the high-order DNA-protein complex” and the “reduction/degradation of cytoplasmic IκBα in the ipsilateral hemisphere” value is on record as “greatly reduced; also recorded: averted”. In data set [1] (24 h after LPS/HI), the “BBB permeability (NaF fluorescence / extravasation)” value is recorded as “markedly attenuated; also recorded: significantly reduced” and the “MMP9 induction/activity in ipsilateral hemisphere (zymogram)” value is recorded as “diminished; also recorded: absence of MMP9 induction”. Moreover, in data set [1] (24 h after LPS/HI, vs saline), the “ADC (apparent diffusion coefficient) signals in the cerebral cortex (MRI)” value was “mitigated; also recorded: significant preservation”. Also, the “increase of brain MCP1 protein (cytokine array)” value in data set [1] (24 h after LPS/HI, 9.7-fold without treatment) came to 3 fold. The “brain cytoarchitectural distinctions in the ipsilateral hemisphere (MEMRI)” value in data set [1] (24 h post-LPS/HI) is recorded as “preserved”. Further, the “increased sodium concentration in the ipsilateral hemisphere (sodium MRI)” value in data set [1] (24 h recovery) is recorded as “mitigated”. Also, in data set [1] (24 h recovery after LPS/HI), the “CD43+ leukocytes in the cortical gray matter” value was “absent” and the “accumulation of CD43+ leukocytes in the leptomeningeal space” value is “prevented the accumulation”. For the same molecule, in data set [1] (24 days of age after LPS/HI), the “latency to fall on rotarods” value was “near-normal”. The brain atrophy entry in data set [1] (LPS/HI injury) is reported as “dose-dependent reduction”. In data set [1] (RT-PCR), the “LPS/HI-induced brain Gata3 mRNA” value is recorded as “not”, the “LPS/HI-induced brain IL-13 mRNA” value is “not”, the “LPS/HI-induced brain IL-17A mRNA” value is recorded as “significantly decreased” and the “LPS/HI-induced brain IL-23 receptor mRNA” value is reported as “significantly decreased”. Also, in data set [1] (RT-PCR), the “LPS/HI-induced brain RORc mRNA” value is listed as “significantly decreased” and the “LPS/HI-induced brain Tbx21/T-bet mRNA” value was “significantly attenuated; also recorded: significantly decreased”. The “gain in body weight” value in data set [1] (by 24 days of age after LPS/HI) is “near-normal gain”. Further, in data set [1] (rat, in vivo), the “impairment of neonatal development” value was “does not impair neonatal development”. The “LPS/HI-induced tissue loss salvaged in the hippocampus and the cerebral cortex” value in data set [1] (treatment started within 30 min after injury) is recorded as greater than 90%. The “induction of MCP1 after ICV injection of LPS” value in data set [2] is “unable to prevent”. For the same molecule, the “microglial processes in hippocampal pyramidal cell layer and monocytes in the brain” value in data set [3] is “showed intrusion of hypertrophic microglia processes in the hippocampal pyramidal cell layer and a massive influx of monocytes; also recorded: hypertrophic microglial processes extended into the pyramidal cell layer and a large number of monocytes were found in the brain”. For the same molecule, the “HI-induced MMP9 activation in ipsilateral cortical hemisphere (zymogram)” value with pure-HI injured rat pups (24 h recovery, pure-HI) is “failed to prevent”. Besides, the “brain atrophy / injury after pure-HI” value with pure-HI injured rat pups (pure-HI 90 min, acute FTY720 treatment) is reported as “failed to prevent; also recorded: ineffective”. In the data set with pure-HI injured rat pups (rat, in vivo), the “worsening of pure-HI brain injury” value is “does not impair neonatal development or worsen pure-HI brain injury”.
For the molecule `CCCCCCCCCCCCC/C=C/[C@@H](O)[C@@H](N)COP(=O)(O)O` [S1P, sphingosine-1-phosphate], the “LPS-induced IL-23 mRNA” value with SM826 microglial cells is “neither phospho-FTY720 nor sphingosine-1-phosphate (S1P) prevented”. In the data set with SM826 microglial cells (5, 20 μM, LPS 5 ng/ml, 30 min), the “LPS-induced IκBα degradation in the cytosol (immunoblot)” value is “no opposing effects; also recorded: lacked this effect” and the “LPS-induced nuclear accumulation of NFκB/RelA (immunoblot)” value is listed as “no opposing effects; also recorded: lacked this effect”. For the same molecule, the “S1PR1 mRNA” value in the data set with SM826 microglial cells (negative feedback of the signaling pathway) is on record as “dose-dependent reduction”. The “microglial activation: LPS-induced expression of IL-23, TNFα and iNOS mRNA” value in the data set on SM826 microglial cells (up to 10 μM) is given as “neither pFTY720 nor S1P (up to 10 μM) suppressed”.
With `CC(=O)Nc1nc(C)c(S(=O)(=O)Nc2ccc(C(O)(C(F)(F)F)C(F)(F)F)cc2)s1` [SR1001, N-(5-(N-(4-(1,1,1,3,3,3-hexafluoro-2-hydroxypropan-2-yl)phenyl)sulphamoyl)-4-methylthiazol-2-yl)acetamide], in the data set on LPS/HI-injured P10 mice, the “brain atrophy (tissue loss)” value was “significantly reduced”, the “induction of TH17 cells” value is on record as “significantly reduced” and the “microglial activation/TSPO marker” value is “significantly reduced”.
As for `CCCCCCCCc1ccc(CCC(N)(CO)COP(=O)(O)O)cc1` (centres unmarked) [phospho-FTY720], the “binding affinity to the S1PR2 isoform” value at S1PR2 was “lacks binding affinity”. For the same molecule, in the data set with SM826 microglial cells, the “LPS-induced IL-23 mRNA” value is recorded as “neither phospho-FTY720 nor sphingosine-1-phosphate (S1P) prevented”. Further, in the data set with SM826 microglial cells (2-10 μM, LPS 5 ng/ml), the “LPS-induced COX2 expression” value is reported as “failed to prevent” and the “LPS-induced iNOS expression” value is given as “failed to prevent”. The “microglial activation: LPS-induced expression of IL-23, TNFα and iNOS mRNA” value in the data set on SM826 microglial cells (up to 10 μM) is listed as “neither pFTY720 nor S1P (up to 10 μM) suppressed”. For the same molecule, in the data set with SM826 microglial cells (up to 10 μM, LPS 5 ng/ml), the “LPS-mediated induction of IL-1β” value is recorded as “failed to attenuate” and the “LPS-mediated induction of IL-6” value is listed as “failed to attenuate”.

Values taken from patent publication US20160317473A1, “METHODS OF TREATING OR PREVENTING BRAIN DAMAGE DUE TO HYPOXIC-ISCHEMIA” (EMORY UNIVERSITY, priority 2014, published 2016).
